Measured values taken from US11571421B2, “GABAA positive allosteric modulator compounds for treatment of itch and/or dermatitis” (NeuroCycle Therapeutics, Inc., priority 2018, dated 2023).
Where “and” joins values, the source holds several entries; their conditions need not be identical. Identical values can stand only once.

Tests used:
Format in all cases: in vivo
[1] = tested on: Oxazolone-induced Itch Model in Male C57BL/6 Mice; test: Oxazolone-induced dermatitis model of chronic itch (Example 7)
Description: In order to assess: the antipruritic effect of PF-06372865 in a clinically relevant disease, the development of a tolerance towards the antipruritic effect of PF-06372865, and the effect of PF-06372865 in reducing dermatitis after prolonged treatment, the oxazolone-induced dermatitis model of chronic itch is used. To this end, wild-type C57Bl/6 mice are treated with 100 μL of 10% oxazolone (4-Ethoxymethylene-2-phenyl-2-oxazolin-5-one) dissolved in acetone/olive oil (4:1) on the nape of the neck. From day 7 to day 31 these mice are treated every other day with 100 μL 1% oxazolone to induce and maintain dermatitis and chronic itch. From day 17 onward, mice are treated with intraperitoneal injection of vehicle or 10 mg/kg PF-06372865 for thirteen consecutive days. On day 31, mice are given either intraperitoneal injection of vehicle or PF-06372865 (10 mg/kg). The number of scratching bouts directed to the nape of the neck between 15 to 210 min after injection are recorded. […] This is independent of the treatment they received from day 7 to day 30. […] To quantify the severity of skin lesions, a dermatitis score are determined. Hemorrhage/erythema, dryness/scaring and hyperplasia (Yamada et. al. Exp Dermatol. 2016, 25, 611-617) are scored as 0 (none), 1 (mild), 2 (moderate) or 3 (severe) once per day resulting in a score between 0 and 9. […]

[2] = tested on: Chloroquine (CQ)-Induced Itch Model in Male C57BL/6 Mice; test: Chloroquine Induced Itch Model, PF-06372865 (Example 1)
Description: PF-06372865 was evaluated as an antipruritic and/or antidermatitis agent using a Chloroquine Induced Itch Model in male C57BL/6 mice.
Male C57BL/6 Mice (8-10 weeks) were used in the study. Animals were procured from CRL, Hylasco (CPSCEA registered animal supplier).
Mice were housed one per cage and maintained at controlled environmental conditions with 12-h light and dark cycles. The temperature and humidity of the room were maintained between 22±3° C. and 55±5%, respectively. The maximum and minimum temperature and relative humidity in the experimental rooms were recorded once daily. […]
PF-06372865 was weighed into a clean mortar. Liquefied Solutol (i.e., Polyoxyl 15 Hydroxystearate) was added drop wise and triturated using a pestle for 2-3 minutes, then Glycerol formal was added and mixed in same fashion. The volume was made up by slowly adding the required volume of water. The resulting mixture was mixed well using mild vortexing to provide a homogeneous suspension. (Details in below chart)
27 mg of chloroquine phosphate was weighed in a clean glass container. 6 mL PBS was added, and the resulting mixture was mixed well using mild vortexing to form the desired strength solution.
The right-side cheek area of all the animals was shaved with animal clippers 1 day prior to the experiment. Animals were randomized into different treatment groups (n=9/group) based on body weight to avoid variability in weights across groups. NCT10004 Phosphate and PF-06372865 formulations and chloroquine phosphate solution were prepared on the day of the experiment.
Animals were dosed per oral with respective treatment group using a dose volume of 10 ml/kg. Times of dosing were recorded. Immediately after compound treatment, animals were kept in an empty transparent chamber (23 cm length×17 cm width) for acclimatization and observation.
Ninety (90) minutes post compound dosing, 50-μl of chloroquine phosphate solution (a 200-μg dose) was injected intracutaneously into the animal's right cheek. Animals were returned to the same chamber for observation. Animals were observed by an observer blind to the treatment group for a period of 30 minutes post chloroquine injection. Total number of bouts of scratching directed at the ipsilateral cheek were recorded for 30 minutes.

Male C57BL/6 Mice = test: Sedative effects, open field arena activity (Example 4); conditions: per oral 1, 3, 10, 30 and 100 mg/kg; recorded for one hour starting one hour after injection
Description: In order to exclude any sedative effects PF-06372865 might have on mice, a dose-response experiment is included. The mice receive per oral injections of PF-06372865 in varying doses (vehicle, 1, 3, 10, 30 and 100 mg/kg). After injection, the mice are placed in an open field arena and their activity is recorded for one hour starting one hour after injection.

[3] = 0.3 mg/kg PO, individual animals
[4] = 10 mg/kg PO, individual animals
[5] = 30 mg/kg PO, individual animals

## CCn1cnc2c(-c3ccc(F)c(-c4ccc(S(=O)(=O)CC)cc4OC)c3)cnnc21 [PF-06372865]
[1]; 10 mg/kg intraperitoneal for thirteen consecutive days
  skin lesions (dermatitis score): significant reduction in skin lesions
[1]; 10 mg/kg intraperitoneal on day 31, 15 to 210 min after injection
  scratching bouts compared to vehicle injection: significant reduction in scratching bouts
[2]; 0.3 mg/kg PO, MEAN, N=9
  Scratching bouts (Nos.) in 30 min, 0-5 min: 2.22 Nos.
  Scratching bouts (Nos.) in 30 min, 5-10 min: 6.67 Nos.
  Scratching bouts (Nos.) in 30 min, 10-15 min: 26.22 Nos.
  Scratching bouts (Nos.) in 30 min, 15-20 min: 24.67 Nos.
  Scratching bouts (Nos.) in 30 min, 20-25 min: 21.00 Nos.
  Scratching bouts (Nos.) in 30 min, 25-30 min: 0.00 Nos.
  Total Scratching bouts: 80.78 Nos./30 min
[2]; [3]
  Scratching bouts (Nos.) in 30 min, 0-5 min: 0 Nos. (6×) and 1 Nos. and 15 Nos. and 4 Nos.
  Scratching bouts (Nos.) in 30 min, 5-10 min: 56 Nos. and 0 Nos. (6×) and 1 Nos. and 3 Nos.
  Scratching bouts (Nos.) in 30 min, 10-15 min: 47 Nos. and 0 Nos. (3×) and 19 Nos. and 46 Nos. and 76 Nos. and 21 Nos. and 27 Nos.
  Scratching bouts (Nos.) in 30 min, 15-20 min: 10 Nos. and 25 Nos. (2×) and 39 Nos. and 13 Nos. and 36 Nos. and 31 Nos. and 11 Nos. and 32 Nos.
  Scratching bouts (Nos.) in 30 min, 20-25 min: 0 Nos. (3×) and 49 Nos. and 33 Nos. and 27 Nos. (2×) and 24 Nos. and 29 Nos.
  Scratching bouts (Nos.) in 30 min, 25-30 min: 0 Nos.
  Total Scratching bouts: 113 Nos./30 min and 74 Nos./30 min and 25 Nos./30 min and 72 Nos./30 min and 33 Nos./30 min and 110 Nos./30 min and 149 Nos./30 min and 56 Nos./30 min and 95 Nos./30 min
[2]; 1 mg/kg PO, MEAN, N=9
  Scratching bouts (Nos.) in 30 min, 0-5 min: 1.22 Nos.
  Scratching bouts (Nos.) in 30 min, 5-10 min: 20.56 Nos.
  Scratching bouts (Nos.) in 30 min, 10-15 min: 9.11 Nos.
  Scratching bouts (Nos.) in 30 min, 15-20 min: 23.11 Nos.
  Scratching bouts (Nos.) in 30 min, 20-25 min: 8.33 Nos.
  Scratching bouts (Nos.) in 30 min, 25-30 min: 8.11 Nos.
  Total Scratching bouts: 70.44 Nos./30 min
[2]; 1 mg/kg PO, individual animals
  Scratching bouts (Nos.) in 30 min, 0-5 min: 0 Nos. (6×) and 1 Nos. and 8 Nos. and 2 Nos.
  Scratching bouts (Nos.) in 30 min, 5-10 min: 22 Nos. and 0 Nos. (2×) and 18 Nos. (2×) and 13 Nos. and 62 Nos. and 49 Nos. and 3 Nos.
  Scratching bouts (Nos.) in 30 min, 10-15 min: 9 Nos. (2×) and 0 Nos. (3×) and 13 Nos. and 1 Nos. and 4 Nos. and 46 Nos.
  Scratching bouts (Nos.) in 30 min, 15-20 min: 41 Nos. and 14 Nos. and 28 Nos. (2×) and 16 Nos. and 45 Nos. and 25 Nos. and 11 Nos. and 0 Nos.
  Scratching bouts (Nos.) in 30 min, 20-25 min: 28 Nos. and 0 Nos. (5×) and 18 Nos. and 8 Nos. and 21 Nos.
  Scratching bouts (Nos.) in 30 min, 25-30 min: 6 Nos. and 25 Nos. and 4 Nos. and 0 Nos. (4×) and 14 Nos. and 24 Nos.
  Total Scratching bouts: 106 Nos./30 min and 39 Nos./30 min and 81 Nos./30 min and 26 Nos./30 min and 93 Nos./30 min and 95 Nos./30 min and 71 Nos./30 min and 22 Nos./30 min and 101 Nos./30 min
[2]; 3 mg/kg PO, MEAN, N=9
  Scratching bouts (Nos.) in 30 min, 0-5 min: 4.89 Nos.
  Scratching bouts (Nos.) in 30 min, 5-10 min: 3.89 Nos.
  Scratching bouts (Nos.) in 30 min, 10-15 min: 11.44 Nos.
  Scratching bouts (Nos.) in 30 min, 15-20 min: 9.89 Nos.
  Scratching bouts (Nos.) in 30 min, 20-25 min: 4.33 Nos.
  Scratching bouts (Nos.) in 30 min, 25-30 min: 3.44 Nos.
  Total Scratching bouts: 37.89 Nos./30 min
[2]; 3 mg/kg PO, individual animals
  Scratching bouts (Nos.) in 30 min, 0-5 min: 16 Nos. and 0 Nos. (4×) and 19 Nos. and 1 Nos. and 3 Nos. and 5 Nos.
  Scratching bouts (Nos.) in 30 min, 5-10 min: 0 Nos. (7×) and 33 Nos. and 2 Nos.
  Scratching bouts (Nos.) in 30 min, 10-15 min: 44 Nos. and 4 Nos. and 0 Nos. (4×) and 10 Nos. and 16 Nos. and 29 Nos.
  Scratching bouts (Nos.) in 30 min, 15-20 min: 17 Nos. and 14 Nos. and 33 Nos. and 0 Nos. (4×) and 3 Nos. and 22 Nos.
  Scratching bouts (Nos.) in 30 min, 20-25 min: 13 Nos. and 0 Nos. (5×) and 14 Nos. and 3 Nos. and 9 Nos.
  Scratching bouts (Nos.) in 30 min, 25-30 min: 9 Nos. and 0 Nos. (5×) and 3 Nos. and 15 Nos. and 4 Nos.
  Total Scratching bouts: 99 Nos./30 min and 18 Nos./30 min and 66 Nos./30 min and 29 Nos./30 min and 24 Nos./30 min and 59 Nos./30 min and 3 Nos./30 min and 12 Nos./30 min and 31 Nos./30 min
[2]; 10 mg/kg PO, MEAN, N=9
  Scratching bouts (Nos.) in 30 min, 0-5 min: 0.00 Nos.
  Scratching bouts (Nos.) in 30 min, 5-10 min: 0.00 Nos.
  Scratching bouts (Nos.) in 30 min, 10-15 min: 7.33 Nos.
  Scratching bouts (Nos.) in 30 min, 15-20 min: 4.11 Nos.
  Scratching bouts (Nos.) in 30 min, 20-25 min: 2.78 Nos.
  Scratching bouts (Nos.) in 30 min, 25-30 min: 1.11 Nos.
  Total Scratching bouts: 15.33 Nos./30 min
[2]; [4]
  Scratching bouts (Nos.) in 30 min, 0-5 min: 0 Nos.
  Scratching bouts (Nos.) in 30 min, 5-10 min: 0 Nos.
  Scratching bouts (Nos.) in 30 min, 10-15 min: 0 Nos. (7×) and 33 Nos. (2×)
  Scratching bouts (Nos.) in 30 min, 15-20 min: 0 Nos. (6×) and 8 Nos. and 3 Nos. and 26 Nos.
  Scratching bouts (Nos.) in 30 min, 20-25 min: 0 Nos. (6×) and 12 Nos. and 9 Nos. and 4 Nos.
  Scratching bouts (Nos.) in 30 min, 25-30 min: 2 Nos. (2×) and 0 Nos. (6×) and 6 Nos.
  Total Scratching bouts: 2 Nos./30 min and 14 Nos./30 min and 41 Nos./30 min and 33 Nos./30 min and 0 Nos./30 min (2×) and 15 Nos./30 min and 3 Nos./30 min and 30 Nos./30 min
[2]; 30 mg/kg PO, MEAN, N=9
  Scratching bouts (Nos.) in 30 min, 0-5 min: 0.00 Nos.
  Scratching bouts (Nos.) in 30 min, 5-10 min: 0.00 Nos.
  Scratching bouts (Nos.) in 30 min, 10-15 min: 0.00 Nos.
  Scratching bouts (Nos.) in 30 min, 15-20 min: 0.00 Nos.
  Scratching bouts (Nos.) in 30 min, 20-25 min: 0.00 Nos.
  Scratching bouts (Nos.) in 30 min, 25-30 min: 0.00 Nos.
  Total Scratching bouts: 0.00 Nos./30 min
[2]; [5]
  Scratching bouts (Nos.) in 30 min, 0-5 min: 0 Nos.
  Scratching bouts (Nos.) in 30 min, 5-10 min: 0 Nos.
  Scratching bouts (Nos.) in 30 min, 10-15 min: 0 Nos.
  Scratching bouts (Nos.) in 30 min, 15-20 min: 0 Nos.
  Scratching bouts (Nos.) in 30 min, 20-25 min: 0 Nos.
  Scratching bouts (Nos.) in 30 min, 25-30 min: 0 Nos.
  Total Scratching bouts: 0 Nos./30 min
[2]; at 0.3, 1, 3, 10 and 30 mg/kg doses
  scratching bouts compared to vehicle treatment, significance: Statistically significant decrease
[2]; quantified for 30 minutes post CQ injection, 0.3-30 mg/kg PO
  total number of scratching bouts, dose response: dose dependent decrease
Male C57BL/6 Mice
  open field activity compared to vehicle: significant increase in activity
